Consider 9 molecules from patent US20260138978A1, “POSITIVE ALLOSTERIC MODULATORS OF THE MUSCARINIC ACETYLCHOLINE RECEPTOR M1” (Vanderbilt University, priority 2022, published 2026).

The target in test [1] is T1, human mAChRM1 (Homo sapiens, UniProt P11229).
T1 construct: host or cells: CHO-K1
T1 sequence (P11229 1-460): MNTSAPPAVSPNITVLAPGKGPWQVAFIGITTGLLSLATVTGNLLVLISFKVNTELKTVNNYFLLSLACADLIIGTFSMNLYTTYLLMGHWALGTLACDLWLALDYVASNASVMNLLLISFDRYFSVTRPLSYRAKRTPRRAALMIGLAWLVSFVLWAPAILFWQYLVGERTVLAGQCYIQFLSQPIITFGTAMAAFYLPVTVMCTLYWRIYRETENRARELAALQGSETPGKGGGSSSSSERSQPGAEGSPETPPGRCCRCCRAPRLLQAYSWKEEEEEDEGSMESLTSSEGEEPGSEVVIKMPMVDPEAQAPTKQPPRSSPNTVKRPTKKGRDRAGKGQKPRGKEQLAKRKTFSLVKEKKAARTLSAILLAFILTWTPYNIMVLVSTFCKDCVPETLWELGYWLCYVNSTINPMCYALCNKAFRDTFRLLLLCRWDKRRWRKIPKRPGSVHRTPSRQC
Briefly: mAChR M1 cell-based functional assay (calcium mobilization), agonist activity upon compound addition, Emax relative to acetylcholine maximum. The settings on record: for EC50 / Agonist Activity Human M1 EC50: calcium mobilization upon compound addition; for Emax: relative to the maximum for acetylcholine. The text has this: Lack of agonist activity may be measured as weak or no increase in calcium fluorescence in mAChRM1-transfected CHO-K1 cells in the presence of the compound, compared to the response of equivalent CHO-K1 cells in the absence of the compound. Lack of mAChRM1 agonist activity may be determined as a percent response relative to acetylcholine. For example, a disclosed compound may have less than or equal to 30%, 25%, 20%, 15%, 10%, 5%, or 1% mAChRM1 agonist activity relative to acetylcholine. A disclosed compound may have substantially no mAChRM1 agonist activity. […] The absence of mAChRM1 agonist activity may contribute to the avoidance of cholinergic adverse effect liability.
(§1) Chinese hamster ovary (CHO-K1) cells stably expressing rat (r)M1 were purchased from the American Type Culture Collection and cultured according to their indicated protocol. CHO cells stably expressing human (h)M2, hM3, and hM5 were described previously (Levey, et al., 1991); hM1 and hM4 cDNAs were purchased from Missouri S&T cDNA Resource; rM4 cDNA was provided by T. I. Bonner (National Institutes of Health, Bethesda, MD). rM2 and rM3 were cloned from a rat brain cDNA library and sequence verified. hM1, rM2, rM3, hM4, and rM4 cDNAs were used to stably transfect CHO-K1 cells purchased from the American Type Culture Collection using Lipofectamine 2000. To make stable rM2, hM2, rM3, hM4. and rM4 cell lines for use in calcium mobilization assays, these cells also were stably transfected with a chimeric G-protein (Gqi5) (provided by B. R. Conklin, University of California, San Francisco) using Lipofectamine 2000. rM1, hM1, rM3, hM3, rM5, and hM5 cells were grown in Ham's F-12 medium containing 10% heat-inactivated fetal bovine serum (FBS), 20 mM HEPES, and 50 μg/mL G418 sulfate. rM2-Gqi5, hM2-Gqi5, and hM4-Gqi5 cells were grown in the same medium also containing 500 µg/mL Hygromycin B. Stable rM4-Gqi5 cells were grown in DMEM containing 10% heat-inactivated FBS, 20 mM HEPES, 400 μg/mL G418 sulfate, and 500 μg/mL Hygromycin B.
(§2) For high throughput measurement of agonist-evoked increases in intracellular calcium, CHO-K1 cells stably expressing muscarinic receptors were plated in growth medium lacking G418 and hygromycin at 15,000 cells/[…] in Greiner 384-well black-walled, tissue culture (TC)-treated, clear-bottom plates (VWR). Cells were incubated overnight at 37° C. and 5% CO2. The next day, cells were washed using an ELX 405 (BioTek) with four washes (80 μL) of assay buffer then aspirated to 20 μL. Next, 20 μL of 16 μM Fluo-4/acetoxymethyl ester (Invitrogen, Carlsbad, CA) prepared as a 2.3 mM stock in DMSO and mixed in a 1:1 ratio with 10% (w/v) Pluronic F-127 and diluted in assay buffer was added to the wells and the cell plates were incubated for 50 min at 37° C. and 5% CO2. Dye was removed by washing with the ELX 405 (four 80 μL washes of assay buffer) then aspirated to 20 μL. Compound master plates were formatted in an 11 point CR^c format (1:3 dilutions) in 100% DMSO with a starting concentration of 10 mM using the BRAVO liquid handler (Agilent). Test compound CRCs were then transferred to daughter plates (240 nL) using the Echo acoustic plate reformatter (Labcyte, Sunnyvale, CA) and then diluted into assay buffer ([…]) to a 2× stock using a Thermo Fisher Combi (Thermo Fisher Scientific, Waltham, MA).
Calcium flux was measured using the Functional Drug Screening System (FDSS) 6000 (Hamamatsu Corporation, Tokyo, Japan) as an increase in the fluorescent static ratio. Compounds were applied to cells (20 μL, 2×) using the automated system of the FDSS 6000 at 4 s into the 300 s protocol and the data were collected at 1 Hz. […] Agonist activity was analyzed as a concentration-dependent increase in calcium mobilization upon compound addition. Emax values for agonist activity are expressed relative to the maximum for acetylcholine. Positive allosteric modulator activity was analyzed as a concentration-dependent increase in the EC20 acetylcholine response. […]
Background: Calcium flux is commonly read through the fluorescence of an indicator in the cells.

The target of test [2] is T1, human mAChRM1. Briefly: mAChR M1 cell-based functional assay (calcium mobilization), positive allosteric modulator activity: increase in the EC20 acetylcholine response. The settings on record: for Emax: PAM mode; for EC50: read-out: PAM Activity Human M1 EC50.
Excerpt: as §1, §2
Calcium flux was measured using the Functional Drug Screening System (FDSS) 6000 (Hamamatsu Corporation, Tokyo, Japan) as an increase in the fluorescent static ratio. Compounds were applied to cells (20 μL, 2×) using the automated system of the FDSS 6000 at 4 s into the 300 s protocol and the data were collected at 1 Hz. […] Agonist activity was analyzed as a concentration-dependent increase in calcium mobilization upon compound addition. Emax values for agonist activity are expressed relative to the maximum for acetylcholine. Positive allosteric modulator activity was analyzed as a concentration-dependent increase in the EC20 acetylcholine response. Antagonist activity was analyzed as a concentration-dependent decrease in the EC80 acetylcholine response. Concentration-response curves were generated using a four-parameter logistical equation in XLfit curve fitting software (IDBS, Bridgewater, NJ) for Excel (Microsoft, Redmond, WA) or Prism (GraphPad Software, Inc., San Diego, CA).
Activity (EC50 and Emax) was determined in the mAChRM1 cell-based functional assay as described above and the data are shown in Table 16. The compound numbers correspond to the compound numbers used in Table 15.

[3] abbreviates: increase in the EC20 acetylcholine response.

Broadly, the EC50 is the concentration needed to bring the measured effect to its halfway point. What is called Emax is the size of the effect at its maximum, as opposed to the concentration needed. Consider `[2H]C1([2H])c2ncccc2C(=O)N1Cc1c(C)cc(-c2ccc(C(C)(C)O)c3nn(C([2H])([2H])[2H])cc23)cc1F` (single isomer, unassigned) [Compound 146, 6-(2-fluoro-4-(7-(2-hydroxypropan-2-yl)-2-(methyl-d3)-2H-indazol-4-yl)-6-methylbenzyl)-6,7-dihydro-5H-pyrrolo[3,4-b]pyridin-5one-7,7-d2], for which the EC50 at human mAChRM1 [1] was ≥ 10000 nM; at human mAChRM1 [2] (setting [3]), 120 nM. Also, the Emax on human mAChRM1 [1] worked out at 28%; at human mAChRM1 [2], 65%.

In the case of `[2H]C([2H])([2H])n1cc2c(-c3cc(F)c(CN4Cc5ncccc5C4=O)c(C4CC4)c3)ccc(C(C)(C)O)c2n1` (single isomer, unassigned) [Compound 16, 6-(2-cyclopropyl-6-fluoro-4-(7-(2-hydroxypropan-2-yl)-2-(methyl-d3)-2H-indazol-4-yl)benzyl)-6,7-dihydro-5H-pyrrolo[3,4-b]pyridin-5-one], the EC50 turned out to be 2060 nM at human mAChRM1 [1] and 66 nM on human mAChRM1 [2] (setting [3]). For the same molecule, the values for the Emax on human mAChRM1 [1] and on human mAChRM1 [2] were 54% and 78%, respectively.

On to `Cn1cc2c(-c3cc(F)c(CN4Cc5ncccc5C4=O)c(F)c3)ccc(C(C)(O)CS(C)(=O)=O)c2n1` (centres unmarked) [Compound 97, 6-(2,6-difluoro-4-(7-(2-hydroxy-1-(methylsulfonyl)propan-2-yl)-2-methyl-2H-indazol-4-yl)benzyl)-6,7-dihydro-5H-pyrrolo[3,4-b]pyridin-5-one], for which the “Agonist Activity Human M1 EC50” value on human mAChRM1 [1] is “inactive”. Moreover, at human mAChRM1 [2], the Emax came out at 87%. For the same molecule, at human mAChRM1 [2] (setting [3]), the EC50 was 872 nM.

Turning to `COc1cc(-c2ccc(C(C)(C)O)cc2)cc(F)c1CN1Cc2cccnc2C1=O` [Compound 119, 6-((3-fluoro-4′-(2-hydroxypropan-2-yl)-5-methoxy-[1,1′-biphenyl]-4-yl)methyl)-5,6-dihydro-7H-pyrrolo[3,4-b]pyridin-7-one], on human mAChRM1 [1], the “Agonist Activity Human M1 EC50” value is “inactive”. Moreover, on human mAChRM1 [2], the Emax was determined as 58%. For the same molecule, the EC50 on human mAChRM1 [2] (setting [3]) was ≥ 10000 nM.

As for `CC(C)(O)c1ccc(-c2cc(F)c(CN3Cc4ncccc4C3=O)c(C(F)(F)F)c2)cc1` [Compound 44, 6-((3-fluoro-4′-(2-hydroxypropan-2-yl)-5-(trifluoromethyl)-[1,1′-biphenyl]-4-yl)methyl)-6,7-dihydro-5H-pyrrolo[3,4-b]pyridin-5-one], on human mAChRM1 [1], the “Agonist Activity Human M1 EC50” value is “inactive”. Besides, the Emax at human mAChRM1 [2] was 61%. In addition, the EC50 at human mAChRM1 [2] (setting [3]) amounted to 5680 nM.

Turning to `CC(C)(O)c1cc(F)c(-c2cc(F)c(CN3Cc4ncccc4C3=O)c(F)c2)cc1F` [Compound 48, 6-((2′,3,5,5′-tetrafluoro-4′-(2-hydroxypropan-2-yl)-[1,1′-biphenyl]-4-yl)methyl)-6,7-dihydro-5H-pyrrolo[3,4-b]pyridin-5-one], the “Agonist Activity Human M1 EC50” value on human mAChRM1 [1] was “inactive”. Moreover, the “PAM Activity Human M1 EC50” value on human mAChRM1 [2] (setting [3]) was “inactive”.

`Cc1cc(-c2ccc(C(C)(C)O)c3nn(C)cc23)ccc1CN1Cc2ncccc2C1=O` [Compound 58, 6-(4-(7-(2-hydroxypropan-2-yl)-2-methyl-2H-indazol-4-yl)-2-methylbenzyl)-6,7-dihydro-5H-pyrrolo[3,4-b]pyridin-5-one]: the values for the EC50 on human mAChRM1 [1] and at human mAChRM1 [2] (setting [3]) were ≥ 10000 nM and 278 nM, respectively. The figures for the Emax on human mAChRM1 [1] and on human mAChRM1 [2] were 23% and 71%, respectively.

In the case of `Cc1cc(-c2cn(C)nc2C(C)(C)O)ccc1CN1Cc2ncccc2C1=O` [Compound 31, 6-(4-(3-(2-hydroxypropan-2-yl)-1-methyl-1H-pyrazol-4-yl)-2-methylbenzyl)-6,7-dihydro-5H-pyrrolo[3,4-b]pyridin-5-one], the “Agonist Activity Human M1 EC50” value on human mAChRM1 [1] is “inactive”. In addition, the Emax on human mAChRM1 [2] was 47%. Also, the EC50 on human mAChRM1 [2] (setting [3]) was ≥ 10000 nM.

For `CC(C)(O)c1ccc(-c2cc(F)c(CN3Cc4ncccc4C3=O)c(F)c2)cc1Cl` [Compound 8, 6-((3′-chloro-3,5-difluoro-4′-(2-hydroxypropan-2-yl)-[1,1′-biphenyl]-4-yl)methyl)-6,7-dihydro-5H-pyrrolo[3,4-b]pyridin-5-one], on human mAChRM1 [1], the “Agonist Activity Human M1 EC50” value is “inactive”. Moreover, the Emax on human mAChRM1 [2] was determined as 69%. The EC50 on human mAChRM1 [2] (setting [3]) came out at 1980 nM.
